Experiments:
HL-60(TB) = assay: NCI-60 SRB screen; assay type: cell-based, human; settings: Homo sapiens; HL-60 (TB); single dose 10^−5 M; read-out: Growth inhibition (%)
SF-268 = assay: NCI-60 SRB screen; assay type: cell-based, human; settings: Homo sapiens; SF-268; single dose 10^−5 M; read-out: Growth inhibition (%)
HCT-15 = assay: NCI-60 SRB screen; assay type: cell-based, human; settings: Homo sapiens; HCT-15; single dose 10^−5 M; read-out: Growth inhibition (%)
MDA-MB-435 = assay: NCI-60 SRB screen; assay type: cell-based; settings: Homo sapiens, MDA-MB-435, read-out: Growth inhibition (%)
NCI-H23 = assay: NCI-60 SRB screen; assay type: cell-based, human; settings: Homo sapiens; NCI-H23; single dose 10^−5 M; read-out: Growth inhibition (%)
NCI-H460 = assay: NCI-60 SRB screen; assay type: cell-based, human; settings: Homo sapiens; NCI-H460; single dose 10^−5 M; read-out: Growth inhibition (%)
786-0 = assay: NCI-60 SRB screen; assay type: cell-based; settings: Homo sapiens; 786-0; single dose 10^−5 M; read-out: Growth inhibition (%)
A549/ATCC = assay: NCI-60 SRB screen; assay type: cell-based, human; settings: Homo sapiens, single dose 10^−5 M, read-out: Growth inhibition (%)
IGROV1 = assay: NCI-60 SRB screen; assay type: cell-based, human; settings: Homo sapiens, IGROV-1; IGROV1; single dose 10^−5 M; read-out: Growth inhibition (%)
OVCAR-3 = assay: NCI-60 SRB screen; assay type: cell-based, human; settings: Homo sapiens; OVCAR-3; single dose 10^−5 M; read-out: Growth inhibition (%)
SK-MEL-2 = assay: NCI-60 SRB screen; assay type: cell-based, human; settings: Homo sapiens; SK-MEL-2; single dose 10^−5 M; read-out: Growth inhibition (%)
HOP-62 = assay: NCI-60 SRB screen; assay type: cell-based, human; settings: Homo sapiens; HOP-62; single dose 10^−5 M; read-out: Growth inhibition (%)
UACC-62 = assay: NCI-60 SRB screen; assay type: cell-based, human; settings: Homo sapiens; UACC-62; single dose 10^−5 M; read-out: Growth inhibition (%)
OVCAR-8 = assay: NCI-60 SRB screen; assay type: cell-based, human; settings: Homo sapiens; OVCAR-8; single dose 10^−5 M; read-out: Growth inhibition (%)
SF-295 = assay: NCI-60 SRB screen; assay type: cell-based, human; settings: Homo sapiens; SF-295; single dose 10^−5 M; read-out: Growth inhibition (%)
UO-31 = assay: NCI-60 SRB screen; assay type: cell-based, human; settings: Homo sapiens; UO-31; single dose 10^−5 M; read-out: Growth inhibition (%)
HOP-92 = assay: NCI-60 SRB screen; assay type: cell-based, human; settings: Homo sapiens; HOP-92; single dose 10^−5 M; read-out: Growth inhibition (%)
M14 = assay: NCI-60 SRB screen; assay type: cell-based, human; settings: Homo sapiens; M14; single dose 10^−5 M; read-out: Growth inhibition (%)
UACC-257 = assay: NCI-60 SRB screen; assay type: cell-based, human; settings: Homo sapiens, UACC-257; UACC-275 (so in the source); single dose 10^−5 M; read-out: Growth inhibition (%)
RXF 393 = assay: NCI-60 SRB screen; assay type: cell-based, human; settings: Homo sapiens; RXF 393; single dose 10^−5 M; read-out: Growth inhibition (%)
MALME-3M = assay: NCI-60 SRB screen; assay type: cell-based, human; settings: Homo sapiens, single dose 10^−5 M, read-out: Growth inhibition (%)
CAKI-1 = assay: NCI-60 SRB screen; assay type: cell-based, human; settings: Homo sapiens; CAKI-1; single dose 10^−5 M; read-out: Growth inhibition (%)
COLO 205 = assay: NCI-60 SRB screen; assay type: cell-based, human; settings: Homo sapiens; COLO 205; single dose 10^−5 M; read-out: Growth inhibition (%)
SK-MEL-28 = assay: NCI-60 SRB screen; assay type: cell-based; settings: Homo sapiens; SK-MEL-28; single dose 10^−5 M; read-out: Growth inhibition (%)
OVCAR-4 = assay: NCI-60 SRB screen; assay type: cell-based, human; settings: Homo sapiens; OVCAR-4; single dose 10^−5 M; read-out: Growth inhibition (%)
SN12C = assay: NCI-60 SRB screen; assay type: cell-based, human; settings: Homo sapiens, SN12C; SN 12 C; single dose 10^−5 M; read-out: Growth inhibition (%)
SW-620 = assay: NCI-60 SRB screen; assay type: cell-based; settings: Homo sapiens; SW-620; single dose 10^−5 M; read-out: Growth inhibition (%)
SK-OV-3 = assay: NCI-60 SRB screen; assay type: cell-based, human; settings: Homo sapiens; SK-OV-3; single dose 10^−5 M; read-out: Growth inhibition (%)
K-562 = assay: NCI-60 SRB screen; assay type: cell-based, human; settings: Homo sapiens, K562; K-562; single dose 10^−5 M; read-out: Growth inhibition (%)
NCI-H322M = assay: NCI-60 SRB screen; assay type: cell-based, human; settings: Homo sapiens, single dose 10^−5 M, read-out: Growth inhibition (%)
HCT-116 = assay: NCI-60 SRB screen; assay type: cell-based, human; settings: Homo sapiens; HCT-116; single dose 10^−5 M; read-out: Growth inhibition (%)
NCI/ADR-RES = assay: NCI-60 SRB screen; assay type: cell-based, human; settings: Homo sapiens, single dose 10^−5 M, read-out: Growth inhibition (%)
EKVX = assay: NCI-60 SRB screen; assay type: cell-based, human; settings: Homo sapiens, single dose 10^−5 M, read-out: Growth inhibition (%)
CCRF-CEM = assay: NCI-60 SRB screen; assay type: cell-based; settings: Homo sapiens, single dose 10^−5 M, read-out: Growth inhibition (%)
HT-29 = assay: NCI-60 SRB screen; assay type: cell-based; settings: Homo sapiens; HT-29; single dose 10^−5 M; read-out: Growth inhibition (%)
KM12 = assay: NCI-60 SRB screen; assay type: cell-based, human; settings: Homo sapiens; KM12; single dose 10^−5 M; read-out: Growth inhibition (%)
SR = assay: NCI-60 SRB screen; assay type: cell-based; settings: Homo sapiens, single dose 10^−5 M, read-out: Growth inhibition (%)
MOLT-4 = assay: NCI-60 SRB screen; assay type: cell-based; settings: Homo sapiens; MOLT-4; single dose 10^−5 M; read-out: Growth inhibition (%)
NCI-H226 = assay: NCI-60 SRB screen; assay type: cell-based, human; settings: Homo sapiens; NCI-H226; single dose 10^−5 M; read-out: Growth inhibition (%)
TK-10 = assay: NCI-60 SRB screen; assay type: cell-based, human; settings: Homo sapiens; TK-10; single dose 10^−5 M; read-out: Growth inhibition (%)
SK-MEL-5 = assay: NCI-60 SRB screen; assay type: cell-based, human; settings: Homo sapiens; SK-MEL-5; single dose 10^−5 M; read-out: Growth inhibition (%)
NCI-H522 = assay: NCI-60 SRB screen; assay type: cell-based, human; settings: Homo sapiens; NCI-H522; single dose 10^−5 M; read-out: Growth inhibition (%)
[1] = tested on: panel of 60 cancer cell lines; assay: NCI-60 SRB screen, mean or range over the panel; assay type: cell-based, human; settings: Homo sapiens; mean over the cell lines; single dose 10^−5 M; read-out: Mean growth inhibition (%)
ACHN = assay: NCI-60 SRB screen; assay type: cell-based; settings: Homo sapiens, single dose 10^−5 M, read-out: Growth inhibition (%)

COc1ccc(C2NC(=O)C(Cl)c3c2sc2c(F)cccc32)cc1 (stereo not shown) [Compound 4b, 4-Chloro-8-fluoro-1-(4-methoxyphenyl)-1,2-dihydro[1]benzothieno[2,3-c] pyridine-3(4H)-one]
inhibition at 10 µM (HL-60(TB)): -5.26% | inhibition at 10 µM (SF-268): 14.3% | inhibition at 10 µM (HCT-15): 14.2% | inhibition at 10 µM (MDA-MB-435): 33.7% | inhibition at 10 µM (NCI-H23): 6.41% | inhibition at 10 µM (NCI-H460): 31.4% | inhibition at 10 µM (786-0): -0.46% | inhibition at 10 µM (A549/ATCC): 55.5% | inhibition at 10 µM (IGROV1): 4.86% | inhibition at 10 µM (OVCAR-3): 0.61% | inhibition at 10 µM (SK-MEL-2): -18.3% | inhibition at 10 µM (HOP-62): 17.2% | inhibition at 10 µM (UACC-62): 8.74% | inhibition at 10 µM (OVCAR-8): 2.95% | inhibition at 10 µM (SF-295): 1.82% | inhibition at 10 µM (UO-31): 71.7% | inhibition at 10 µM (HOP-92): 16.4% | inhibition at 10 µM (M14): 3.86% | inhibition at 10 µM (UACC-257): -6.58% | inhibition at 10 µM (RXF 393): 9.68% | inhibition at 10 µM (MALME-3M): 10.8% | inhibition at 10 µM (CAKI-1): 17.7% | inhibition at 10 µM (COLO 205): -20.5% | inhibition at 10 µM (SK-MEL-28): -0.07% | inhibition at 10 µM (OVCAR-4): 7.51% | inhibition at 10 µM (SN12C): 3.66% | inhibition at 10 µM (SW-620): 6.49% | inhibition at 10 µM (SK-OV-3): -2.04% | inhibition at 10 µM (K-562): 31.3% | inhibition at 10 µM (NCI-H322M): 22% | inhibition at 10 µM (HCT-116): 1.62% | inhibition at 10 µM (NCI/ADR-RES): 9.18% | inhibition at 10 µM (EKVX): 23% | inhibition at 10 µM (CCRF-CEM): -0.42% | inhibition at 10 µM (HT-29): -6.98% | inhibition at 10 µM (KM12): 7.6% | inhibition at 10 µM (SR): 39.3% | inhibition at 10 µM (MOLT-4): 7.88% | inhibition at 10 µM (NCI-H226): 7.14% | inhibition at 10 µM (TK-10): -38.1% | inhibition at 10 µM (SK-MEL-5): -0.07% | inhibition at 10 µM (NCI-H522): 21.7% | inhibition at 10 µM [1]: 8.66% | inhibition at 10 µM (ACHN): -3.2%

O=C1NC(c2ccccc2[N+](=O)[O-])c2sc3c(F)cccc3c2C1Cl (stereo not shown) [Compound 4c, 4-Chloro-8-fluoro-1-(2-nitrophenyl)-1,2-dihydro[1]benzothieno[2,3-c] pyridine-3(4H)-one]
inhibition at 10 µM (HL-60(TB)): -5.53% | inhibition at 10 µM (SF-268): 10.5% | inhibition at 10 µM (HCT-15): -1.51% | inhibition at 10 µM (MDA-MB-435): -7.17% | inhibition at 10 µM (NCI-H23): 6.95% | inhibition at 10 µM (NCI-H460): 17.2% | inhibition at 10 µM (786-0): -16.9% | inhibition at 10 µM (A549/ATCC): 3.15% | inhibition at 10 µM (IGROV1): 33% | inhibition at 10 µM (OVCAR-3): 7.25% | inhibition at 10 µM (SK-MEL-2): -16.7% | inhibition at 10 µM (HOP-62): 3.32% | inhibition at 10 µM (UACC-62): 20.8% | inhibition at 10 µM (OVCAR-8): 1.73% | inhibition at 10 µM (SF-295): -7.26% | inhibition at 10 µM (UO-31): 33.2% | inhibition at 10 µM (HOP-92): -11.2% | inhibition at 10 µM (M14): 1.7% | inhibition at 10 µM (UACC-257): -0.18% | inhibition at 10 µM (RXF 393): -17.3% | inhibition at 10 µM (MALME-3M): 9.46% | inhibition at 10 µM (CAKI-1): 12.4% | inhibition at 10 µM (COLO 205): -21.6% | inhibition at 10 µM (SK-MEL-28): 8.45% | inhibition at 10 µM (OVCAR-4): 11.1% | inhibition at 10 µM (SN12C): 4.76% | inhibition at 10 µM (SW-620): 2.43% | inhibition at 10 µM (SK-OV-3): -9.85% | inhibition at 10 µM (K-562): 33.5% | inhibition at 10 µM (NCI-H322M): -4.23% | inhibition at 10 µM (HCT-116): 11.4% | inhibition at 10 µM (NCI/ADR-RES): -1.98% | inhibition at 10 µM (EKVX): 11.8% | inhibition at 10 µM (CCRF-CEM): -0.04% | inhibition at 10 µM (HT-29): -9.93% | inhibition at 10 µM (KM12): -0.66% | inhibition at 10 µM (SR): 0.2% | inhibition at 10 µM (MOLT-4): 11.8% | inhibition at 10 µM (NCI-H226): 18.5% | inhibition at 10 µM (TK-10): -52% | inhibition at 10 µM (SK-MEL-5): 8.45% | inhibition at 10 µM (NCI-H522): 7.95% | inhibition at 10 µM [1]: 3% | inhibition at 10 µM (ACHN): -4.45%
